Where a name gives a salt, the structure may show the parent alone.
Target: T1, human P2X4 receptors (Homo sapiens, UniProt Q99571)
T1 construct: expressed in transfected cells
T1 sequence (Q99571 1-388): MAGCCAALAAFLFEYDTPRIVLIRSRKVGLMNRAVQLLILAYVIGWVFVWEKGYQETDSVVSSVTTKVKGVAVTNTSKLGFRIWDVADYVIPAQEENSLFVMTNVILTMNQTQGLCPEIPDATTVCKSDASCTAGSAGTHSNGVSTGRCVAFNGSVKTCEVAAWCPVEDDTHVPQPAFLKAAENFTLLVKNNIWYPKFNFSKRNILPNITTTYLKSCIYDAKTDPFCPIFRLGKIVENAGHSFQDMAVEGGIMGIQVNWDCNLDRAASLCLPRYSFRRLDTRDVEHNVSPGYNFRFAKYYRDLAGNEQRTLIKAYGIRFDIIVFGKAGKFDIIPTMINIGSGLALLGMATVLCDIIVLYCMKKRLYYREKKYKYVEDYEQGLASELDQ
Assay: calcium influx assay (Fura-2, ATP-induced Ca2+ response) for P2X4 receptor antagonism
Format: cell-based
Conditions: 1321N1 cells stably expressing human P2X4 receptors; 1 μM ATP; compound treated 15 min before ATP; fluorescence ratio F340/F380
Protocol: (§1) 1321N1 cells stably expressing human P2X4 receptors were adopted for calcium influx assay. P2X4/1321N1 cells were plated in 96-well assay plate and cultured 24 hours in an atmosphere of 5% CO2 at 37° C. Fura-2 AM calcium indicator dissolved in an extracellular solution for calcium imaging was loaded onto cells for 45 minutes at room temperature. […] The cells were alternatively illuminated with two excitations wavelengths (340 nm and 380 nm) via xenon lamp and the emitted fluorescence was measured at 510 nm. The fluorescence changes after the treatment of 1 μM ATP were monitored and determined the fluorescence ratio (F340/F380) as the index of intracellular calcium change. Tested compounds were treated to cells 15 min before the addition of ATP and the inhibition activities of compounds were calculated by comparing the Ca^2+ response with control in the absence of tested compound.
P2X4 receptor antagonism of the compound of the present invention was measured as described below.
as §1, with “change.” for “change. Tested compounds were treated to cells 15 min before the addition of ATP and the inhibition activities of compounds were calculated by comparing the Ca^2+ response with control in the absence of tested compound.”

Point of comparison: `O=C1CC(=O)N(c2cccc(-c3ncco3)c2)c2ccc3ccccc3c2N1` [Example 15, 5-[3-(Oxazol-2-yl)phenyl]-1H-naphtho[1,2-b][1,4]diazepin-2,4(3H,5H)-dione], IC50 4.2 µM. Against it:
- O=C1CC(=O)N(c2ccc(-c3nnn[nH]3)cc2)c2ccc3ccccc3c2N1 [Example 4, 5-[4-(1H-Tetrazol-5-yl)phenyl]-1H-naphtho[1,2-b][1,4]diazepin-2,4(3H,5H)-dione sodium salt] — 5.6-fold lower, 0.75 µM
- O=C1CC(=O)N(c2cccc(-c3cn[nH]c3)c2)c2ccc3ccccc3c2N1 [Example 16, 5-[3-(1H-Pyrazol-4-yl)phenyl]-1H-naphtho[1,2-b][1,4]diazepin-2,4(3H,5H)-dione] — within 1.5-fold, 3.6 µM

Reference: US8470814B2, “Diazepinedione derivative” (Nippon Chemiphar Co., Ltd., priority 2009, dated 2013)
